Measured values: US7202280B2, “Methods for the treatment and prevention of pancreatitis and for induction of liver regeneration” (priority 2002, dated 2007)
Several values for one entry are separate records, joined by “and”; a condition that tells them apart may be missing. Equal entries are not always repeated.

Tests used:
SSAT = SSAT activity in SSAT transgenic rats after polyamine analogues without or with MDL72527; assay type: in vivo, rat
Protocol: FIGS. 9A–9B. Effect of polyamine analogues without or with MDL72527 on hepatic SSAT (FIG. 9A) and PAO (FIG. 9B) activities in SSAT transgenic rats. The rats were treated with the drugs as described in the legend for FIGS. 8A–8D. There were three to four animals in each group.
The production of transgenic Wistar rats (UKUR30) and mice (UKU181) harboring metallothionein-SSAT fusion gene (Suppola, S., Pietilä, M., Parkkinen, J. J., Korhonen, V. P., Alhonen, L., Halmekytö, M., Porter, C. W., and Jänne, J. (1999) Biochem. J. 338, 311–316) has been described earlier (Alhonen, L., Parkkinen, J. J., Keinänen, T., Sinervirta, R., Herzig, K. H., and Jänne, J. (2000) Proc. Natl. Acad. Sci. U.S.A. 97, 8290–8295; Lukkarinen, J., Gröhn, O., Sinervirta, R., Järvinen, A., Kauppinen, R. A., Jänne, J., and Alhonen, L. (1997) Stroke 28, 639–645). Partial hepatectomy was carried out according to the original method of Higgins and Anderson (Higgins, G. H., and Anderson, R. M. (1931) Arch. Pathol. 12, 186–202). […]
PAO activity was measured to verify the effectiveness of MDL72527 treatment and to determine whether the analogues have any effect on its activity. […]

[1] = test system: SSAT transgenic rats (UKUR30); experiment: Treatment of zinc induced acute pancreatitis in SSAT transgenic rats: survival and severity (histology, plasma amylase, mortality); assay type: in vivo, rat; set-up: key to Edema: 0 (absent); 1 (minimal); 4 (maximal); details: for Edema / Necr. / P-amyl: single animals
Protocol: Formalin-fixed pancreatic specimens were embedded in paraffin, cut into 5-μm-thick slices, and stained with hematoxylin/eosin. The stained sections were coded and scored by the participating gastroenterologist (K.-H. H.) according to the method of Niederau et al. (Niederau, C., Liddle, R. A., Ferrell, L. D., and Grendell, J. H. (1986) J. Clin. Invest. 78, 1056–1063).
Transgenic UKUR30 female rats (weighting about 200 g) were used for the experiments. Pancreatitis was initiated with zinc 10 mg/kg treatment. Experiments were separated in five different parts (Exp. 1–5). Animals treated with α-MeSPD received 50 mg/kg i.p at the indicated time point(s). The pooled data from all of the experiment is shown in tables 4 A/B/C/D. First histological signs of pancreatic failure were evident within 6 h after the zinc. Pancreatic failure steadily increases until 24 hours when the first animals died. Within 48 hours mortality was almost 70% in control zinc treated rats.
Tables 4 A/B/C/D present the natural course of zinc induced pancreatitis. Histological scoring along with plasma amylase activity is shown as a measure of severity of pancreatitis. Tissue zinc and polyamine levels and SSAT activity were determined to verify the response of each animal to the treatment. No other data than the number of death animals is shown from deceased animals. Transgenic UKUR30 female rats weighting about 200 grams were used for the experiment. Zinc was injected i.p. 10 mg/kg to initiate acute pancreatitis. Animals treated with MeSpd received one 50 mg/kg dosage i.p. at the indicated time point(s). At indicated time points live animals were sacrificed and pancreas was subjected to further analysis. […] Values for polyamines are expressed as pmoles/mg/wet weight. SSAT pmoles/10 min/mg wet weight.

[2] = Zn 24 h, MeSpd 50 mg/kg i.p. at 3 h/8 h
[3] = Zn 24 h, MeSpd 50 mg/kg i.p. at 6 h/12 h
[4] = Zn 24 h, MeSpd 50 mg/kg i.p. at 12 h
[5] = Zn 48 h, MeSpd 50 mg/kg i.p. at 3 h/8 h
[6] = Zn 48 h, MeSpd 50 mg/kg i.p. at 4 h/24 h
[7] = Zn 48 h, MeSpd 50 mg/kg i.p. at 12 h/24 h

## CC(N)CCNCCCCNCCC(C)N (stereo not drawn) [bis-α-methylspermine, 1,12-dimethylspermine]
SSAT; analogue 25 mg/kg i.p. twice
  hepatic SSAT activity: significantly increased hepatic SSAT activity
SSAT; analogue combined with MDL72527
  hepatic SSAT activity: further enhanced

## CC(N)CCNCCCCN (stereo not drawn) [α-methylspermidine, 1-methylspermidine]
[1]; [2]
  Edema: 0 (2×) and 2 (2×)
  Necr.: 0 (0, 0–5%) (2×) and 3 (3, 35–50%) and 4 (4, >50%)
  P-amyl: 2743 U/l and 20380 U/l and 11420 U/l and 2801 U/l
[1]; [3]
  Edema: 0 (3×) and 1 (2×) and 2 (2×) and 3 and 4
  Necr.: 0 (0, 0–5%) (4×) and 4 (4, >50%) (4×) and 2 (2, 15–35%)
  P-amyl: 2686 U/l and 2153 U/l and 2572 U/l and 30970 U/l and 42250 U/l and 30860 U/l and 28400 U/l and 5110 U/l and 25050 U/l
[1]; [4]
  Edema: 1 and 2 (2×) and 3
  Necr.: 0 (0, 0–5%) and 4 (4, >50%) (2×) and 3 (3, 35–50%)
  P-amyl: 3048 U/l and 17170 U/l and 31310 U/l and 18960 U/l
[1]; Zn 24 h, MeSpd treatment yes
  Mortality %: 0%
[1]; Zn 24 h, MeSpd treatment yes, 17 animals
  Number of death animals: 0
[1]; [5]
  Edema: 3 (2×) and 2
  Necr.: 4 (4, >50%)
  P-amyl: 5867 U/l and 5117 U/l and 29880 U/l
[1]; [6]
  Edema: 0 (3×) and 1 and 3
  Necr.: 0 (0, 0–5%) (4×) and 4 (4, >50%)
  P-amyl: 1924 U/l and 2740 U/l and 2908 U/l and 2591 U/l and 3943 U/l
[1]; [7]
  Edema: 3 (2×) and 0 and 2
  Necr.: 4 (4, >50%) (3×) and 0 (0, 0–5%)
  P-amyl: 86840 U/l and 2693 U/l and 36470 U/l and 3382 U/l
[1]; Zn 48 h, MeSpd treatment yes
  Mortality %: 8%
